Patent publication US10941157B2, “Pesticidal compositions and uses thereof” (Gilead Apollo, LLC, priority 2015, dated 2021)
In brackets after ≈: the same amount, converted by molar mass. Like-named read-outs stand apart in the source and are kept apart here.

What was measured:
Assay type in all cases: cell-based
Botrtyis cinerea (Bc) = assay: In vitro pathogen growth inhibition assay, Bc; conditions: 48 h
Protocol: (§1) A growth inhibition assay was conducted to determine the ability of compounds to control the growth of fungal pathogens, such as Botrtyis cinerea (Bc), Collectotrichum graminicola (Cg), Diplodia maydis (Dm), Fusarium moniliforme (Fm), Fusarium virguliforme (Fv), Phytophthora capsici (Pc), Rhizoctonia solani (Rs), and Septoria tritici (St). The compounds listed in Table 1 were each dissolved in DMSO at 2.5 mg/ml to produce compound stock solutions (“stocks”). […] Negative controls on each plate included 2% DMSO, water, and a blank (media+2% DMSO). Fungal spores were isolated from previously sub-cultured plates of Botrtyis cinerea (Bc), Collectotrichum graminicola (Cg), Diplodia maydis (Dm), Fusarium moniliforme (Fm), Fusarium virguliforme (Fv), Phytophthora capsici (Pc), and Septoria tritici (St). The isolated spores were diluted to individual concentrations with a 17% V8 liquid media. For Rhizoctonia solani (Rs), 1.5 mm mycelial plugs were used in place of spores and ¼ Potato Dextrose Broth (PDB) was used for dilution. The spore concentrations and plug sizes were based on growth curves generated at 48 hours for each pathogen. In a second 96-well plate, the spores or mycelial plugs, media, diluted compound solutions, and controls were combined. Once the compound was added, a true final concentration of compound in each well was measured by an OD600 reading, which adjusted for any compound precipitation that might have occurred in the well. Plate readings were repeated at both 24 and 48 hours. The blank negative control was used as a background subtraction. Additional visual ratings were performed at both 24 and 48 hours for checking on precipitation and confirming efficacy. […] Both tables list the concentration of each compound that was sufficient to ≥90% inhibition of growth for each of the fungal pathogens listed above. In addition, some of compounds were tested in a yeast growth inhibition assay for Saccharomyces cerevisiae (Sc). Table 2 lists the concentration of the tested compound that was sufficient to ≥75% inhibition of Saccharomyces cerevisiae (Sc).

[1] = test system: Collectotrichum graminicola (Cg); assay: In vitro pathogen growth inhibition assay, Cg; conditions: 48 h
Protocol: as §1

Diplodia maydis (Dm) = assay: In vitro pathogen growth inhibition assay, Dm; conditions: Stenocarpella maydis, 48 h
Protocol: as §1

[2] = test system: Fusarium moniliforme (Fm); assay: In vitro pathogen growth inhibition assay, Fm; conditions: Fusarium verticillioides
Protocol: as §1

[3] = test system: Fusarium virguliforme (Fv); assay: In vitro pathogen growth inhibition assay, Fv
Protocol: as §1

[4] = test system: Phytophthora capsici (Pc); assay: In vitro pathogen growth inhibition assay, Pc; conditions: 48 h
Protocol: as §1

Rhizoctonia solani (Rs) = assay: In vitro pathogen growth inhibition assay, Rs (mycelial plugs); conditions: Rhizoctonia solani, 48 h
Protocol: as §1

Septoria tritici (St) = assay: In vitro pathogen growth inhibition assay, St; conditions: Zymoseptoria tritici, 48 h
Protocol: as §1

[5] = ≥90% inhibition, 48 hours vs 2% DMSO control, read-out: Compound Concentration (ppm) sufficient for ≥90% inhibition of growth, Bc
[6] = ≥90% inhibition, 48 hours vs 2% DMSO control, read-out: Compound Concentration (ppm) sufficient for ≥90% inhibition of growth, Cg
[7] = ≥90% inhibition, 48 hours vs 2% DMSO control, read-out: Compound Concentration (ppm) sufficient for ≥90% inhibition of growth, Dm
[8] = ≥90% inhibition, 48 hours vs 2% DMSO control, read-out: Compound Concentration (ppm) sufficient for ≥90% inhibition of growth, Fm
[9] = ≥90% inhibition, 48 hours vs 2% DMSO control, read-out: Compound Concentration (ppm) sufficient for ≥90% inhibition of growth, Fv
[10] = ≥90% inhibition, 48 hours vs 2% DMSO control, read-out: Compound Concentration (ppm) sufficient for ≥90% inhibition of growth, Pc
[11] = ≥90% inhibition, mycelial plugs, 48 hours vs 2% DMSO control, read-out: Compound Concentration (ppm) sufficient for ≥90% inhibition of growth, Rs
[12] = ≥90% inhibition, 48 hours vs 2% DMSO control, read-out: Compound Concentration (ppm) sufficient for ≥90% inhibition of growth, St
[13] = ≥90% growth inhibition, 48 hours, vs 2% DMSO control, read-out: Compound Concentration (ppm) sufficient for ≥90% inhibition of Bc
[14] = ≥90% growth inhibition, 48 hours, vs 2% DMSO control, read-out: Compound Concentration (ppm) sufficient for ≥90% inhibition of Cg
[15] = ≥90% growth inhibition, 48 hours, vs 2% DMSO control, read-out: Compound Concentration (ppm) sufficient for ≥90% inhibition of Dm
[16] = ≥90% growth inhibition, 48 hours, vs 2% DMSO control, read-out: Compound Concentration (ppm) sufficient for ≥90% inhibition of Fm
[17] = ≥90% growth inhibition, 48 hours, vs 2% DMSO control, read-out: Compound Concentration (ppm) sufficient for ≥90% inhibition of Fv
[18] = ≥90% growth inhibition, 48 hours, vs 2% DMSO control, read-out: Compound Concentration (ppm) sufficient for ≥90% inhibition of Pc
[19] = ≥90% growth inhibition, mycelial plugs, 48 hours, vs 2% DMSO control, read-out: Compound Concentration (ppm) sufficient for ≥90% inhibition of Rs
[20] = ≥90% growth inhibition, 48 hours, vs 2% DMSO control, read-out: Compound Concentration (ppm) sufficient for ≥90% inhibition of St

SMILES	IC90 (Botrtyis cinerea (Bc); [5])	IC90 [1, 6]	IC90 (Diplodia maydis (Dm); [7])	IC90 [2, 8]	IC90 [3, 9]	IC90 [4, 10]	IC90 (Rhizoctonia solani (Rs); [11])	IC90 (Septoria tritici (St); [12])	also measured
COc1ccc(F)cc1[C@H](Cn1c(=O)n([C@@H](C)C(=O)NC2CCC2)c(=O)c2c(C)c(-n3cccn3)sc21)OCCC#N [Compound I-312]									IC90 (Botrtyis cinerea (Bc); concentration sufficient to ≥90% inhibition of growth, 48 hours vs 2% DMSO control, read-out: Compound Concentration (ppm) for ≥90% inhibition, Bc): > 50 µg/mL; IC90 ([1]; concentration sufficient to ≥90% inhibition of growth, 48 hours vs 2% DMSO control, read-out: Compound Concentration (ppm) for ≥90% inhibition, Cg): > 50 µg/mL; IC90 (Diplodia maydis (Dm); concentration sufficient to ≥90% inhibition of growth, 48 hours vs 2% DMSO control, read-out: Compound Concentration (ppm) for ≥90% inhibition, Dm): > 50 µg/mL; IC90 ([2]; concentration sufficient to ≥90% inhibition of growth, 48 hours vs 2% DMSO control, read-out: Compound Concentration (ppm) for ≥90% inhibition, Fm): 10 µg/mL (≈ 16.8 µM); IC90 ([3]; concentration sufficient to ≥90% inhibition of growth, 48 hours vs 2% DMSO control, read-out: Compound Concentration (ppm) for ≥90% inhibition, Fv): > 50 µg/mL; IC90 ([4]; concentration sufficient to ≥90% inhibition of growth, 48 hours vs 2% DMSO control, read-out: Compound Concentration (ppm) for ≥90% inhibition, Pc): > 50 µg/mL; IC90 (Rhizoctonia solani (Rs); concentration sufficient to ≥90% inhibition of growth, 48 hours vs 2% DMSO control, read-out: Compound Concentration (ppm) for ≥90% inhibition, Rs): 2 µg/mL (≈ 3.36 µM); IC90 (Septoria tritici (St); concentration sufficient to ≥90% inhibition of growth, 48 hours vs 2% DMSO control, read-out: Compound Concentration (ppm) for ≥90% inhibition, St): > 50 µg/mL
COc1ccc(F)cc1[C@H](Cn1c(=O)n(C(C)(C)C(=O)NCC(C)C)c(=O)c2c(C)c(-n3nccn3)sc21)OC1CCOCC1 [Compound I-040]	0.4 µg/mL (≈ 0.622 µM)	≥ 0.4 µg/mL	≥ 0.4 µg/mL	0.08 µg/mL (≈ 0.124 µM)	0.4 µg/mL (≈ 0.622 µM)	> 50 µg/mL	2 µg/mL (≈ 3.11 µM)	≥ 10 µg/mL	
COc1ccc(F)cc1[C@@H](O)Cn1c(=O)n([C@@H](C)C(=O)N2CCCC2)c(=O)c2c(C)c(-n3nccn3)sc21 [Compound I-218]									IC90 (Botrtyis cinerea (Bc); [13]): 10 µg/mL (≈ 18.4 µM); IC90 [1, 14]: 10 µg/mL (≈ 18.4 µM); IC90 (Diplodia maydis (Dm); [15]): 50 µg/mL (≈ 92.2 µM); IC90 [2, 16]: 2 µg/mL (≈ 3.69 µM); IC90 [3, 17]: 2 µg/mL (≈ 3.69 µM); IC90 [4, 18]: ≥ 50 µg/mL; IC90 (Rhizoctonia solani (Rs); [19]): 2 µg/mL (≈ 3.69 µM); IC90 (Septoria tritici (St); [20]): > 50 µg/mL
Cc1c(-n2nccn2)sc2c1c(=O)n(C(C)(C)C(=O)NC(C)C)c(=O)n2C[C@H](O[C@H]1CC[C@@H](O)CC1)c1cc(F)ccc1OCC#N [Compound I-268]									IC90 (Botrtyis cinerea (Bc); [13]): 2 µg/mL (≈ 3 µM); IC90 [1, 14]: 2 µg/mL (≈ 3 µM); IC90 (Diplodia maydis (Dm); [15]): ≥ 2 µg/mL; IC90 [2, 16]: 0.08 µg/mL (≈ 0.12 µM); IC90 [3, 17]: 2 µg/mL (≈ 3 µM); IC90 [4, 18]: > 50 µg/mL; IC90 (Rhizoctonia solani (Rs); [19]): 0.4 µg/mL (≈ 0.599 µM); IC90 (Septoria tritici (St); [20]): > 50 µg/mL
COc1ccccc1[C@H](Cn1c(=O)n(C(C)(C)C(=O)NC(C)C)c(=O)c2c(C)c(-n3cccn3)sc21)OCC(C)C [Compound I-119]	2 µg/mL (≈ 3.44 µM)	10 µg/mL (≈ 17.2 µM)	≥ 2 µg/mL	0.4 µg/mL (≈ 0.688 µM)	10 µg/mL (≈ 17.2 µM)	> 50 µg/mL	2 µg/mL (≈ 3.44 µM)	> 50 µg/mL	
COc1ccccc1[C@H](Cn1c(=O)n(C(C)(C)C(=O)N2CCCCC2)c(=O)c2c(C)c(-n3cccn3)sc21)OC(C)C [Compound I-047]	0.4 µg/mL (≈ 0.674 µM)	≥ 2 µg/mL	2 µg/mL (≈ 3.37 µM)	0.08 µg/mL (≈ 0.135 µM)	0.4 µg/mL (≈ 0.674 µM)	> 50 µg/mL	2 µg/mL (≈ 3.37 µM)	> 50 µg/mL	
COc1ccc(F)cc1[C@H](Cn1c(=O)n(C(C)C(=O)N2CCCC2)c(=O)c2c(C)c(-n3nccn3)sc21)OC(C)C (stereo partly shown) [Compound I-056]	0.4 µg/mL (≈ 0.684 µM)	0.08 µg/mL (≈ 0.137 µM)	0.08 µg/mL (≈ 0.137 µM)	0.08 µg/mL (≈ 0.137 µM)	0.24 µg/mL (≈ 0.41 µM)	30 µg/mL (≈ 51.3 µM)	0.24 µg/mL (≈ 0.41 µM)	26 µg/mL (≈ 44.5 µM)	
COc1ccc(F)cc1[C@H](Cn1c(=O)n(C(C)(C)C(=O)N2CCCC2)c(=O)c2c(C)c(-n3cccn3)sc21)OCC(C)(C)O [Compound I-138]	10 µg/mL (≈ 15.9 µM)	10 µg/mL (≈ 15.9 µM)	≥ 10 µg/mL	0.4 µg/mL (≈ 0.637 µM)	10 µg/mL (≈ 15.9 µM)	> 50 µg/mL	≥ 2 µg/mL	> 50 µg/mL	
